Measurements published in ChEMBL document CHEMBL3045694, “Insecticidal activity and chemical composition of volatile oils from Hyptis martiusii Benth” (2003).

Columns and labels:
Type in all cases: functional
[1] = tested on: Aedes aegypti; assay: Larvicidal activity against third larval stage of Aedes aegypti assessed as mortality at 25 mg/L after 24 hr
[2] = tested on: Aedes aegypti; assay: Larvicidal activity against third larval stage of Aedes aegypti assessed as mortality at 50 mg/L after 24 hr
[3] = tested on: Aedes aegypti; assay: Larvicidal activity against third larval stage of Aedes aegypti assessed as mortality at 250 mg/L after 24 hr
[4] = tested on: Aedes aegypti; assay: Larvicidal activity against third larval stage of Aedes aegypti assessed as mortality at 100 mg/L after 24 hr
[5] = tested on: Aedes aegypti; assay: Larvicidal activity against third larval stage of Aedes aegypti assessed as mortality at 500 mg/L after 24 hr
[6] = tested on: Bemisia argentifolii; assay: Insecticidal activity against adult Bemisia argentifolii reared on compound-treated melon leaves assessed as layed eggs at 1000 mg/L applied as spray after 72 hr
[7] = tested on: Bemisia argentifolii; assay: Insecticidal activity against adult Bemisia argentifolii reared on compound-treated melon leaves assessed as mortality at 1000 mg/L applied as spray after 72 hr

`CC12CCC(CC1)C(C)(C)O2` [EUCALYPTOL] was tested, and the mortality at 25 µg/mL [1] was 10%, the mortality at 50 µg/mL [2] was 53% and the mortality at 250 µg/mL [3] was 100%. It also gave a mortality at 100 µg/mL [4] of 100%, a mortality at 500 µg/mL [5] of 100% and an Activity [6] of 9.2%. It also gave a mortality at 1000 µg/mL [7] of 91.2%.
